Measured values from patent US10273236B2, “Macrocyclic factor XIa inhibitors bearing heterocyclic groups” (Bristol-Myers Squibb Company, priority 2014, dated 2019).
Structures can show the parent of a compound that is named as a salt.

Columns and labels:
[1] = biological target: T1, purified human plasma kallikrein (Homo sapiens, UniProt P03952); assay: Plasma kallikrein inhibition assay, chromogenic substrate S-2302 (Ki); format: biochemical
T1 construct: Plasma prekallikrein is a zymogen of a trypsin-like serine protease; purchased Enzyme Research Laboratories
Description: (§1) The effectiveness of compounds of the present invention as inhibitors of the coagulation Factors XIa, VIIa, IXa, Xa, XIIa, plasma kallikrein or thrombin, can be determined using a relevant purified serine protease, respectively, and an appropriate synthetic substrate. The rate of hydrolysis of the chromogenic or fluorogenic substrate by the relevant serine protease was measured both in the absence and presence of compounds of the present invention. […] A decrease in the rate of absorbance or fluorescence change in the presence of inhibitor is indicative of enzyme inhibition. Such methods are known to one skilled in the art. The results of this assay are expressed as the inhibitory constant, Ki.
Plasma kallikrein determinations were made in 0.1 M sodium phosphate buffer at a pH of 7.5 containing 0.1-0.2 M sodium chloride and 0.5% PEG 8000. Determinations were made using purified human plasma kallikrein (Enzyme Research Laboratories) at a final assay concentration of 200 pM and the synthetic substrate S-2302 (H-(D)-Pro-Phe-Arg-pNA; Chromogenix) at a concentration of 0.00008-0.0004 M.
(§2) Values of Ki were determined by allowing the protease to react with the substrate in the presence of the inhibitor.
(§3) Reactions were allowed to go for periods of 20-180 minutes (depending on the protease) and the velocities (rate of absorbance or fluorescence change versus time) were measured.
(§4) The following relationships were used to calculate Ki values: (Vmax*S)/(Km+S) (vo−vs)/vs=I/(Ki(1+S/Km)) for a competitive inhibitor with one binding site; or vs/vo=A+((B−A)/1+((IC50/(I)^n))); and Ki=IC50/(1+S/Km) for a competitive inhibitor where: […]

[2] = biological target: T2, purified human Factor XIa (Homo sapiens, UniProt P03951); assay: Factor XIa inhibition assay, chromogenic substrate S-2366 (Ki); format: biochemical
T2 construct: purchased Haematologic Technologies
Description: as §1
Factor XIa determinations were made in 50 mM HEPES buffer at pH 7.4 containing 145 mM NaCl, 5 mM KCl, and 0.1% PEG 8000 (polyethylene glycol; JT Baker or Fisher Scientific). Determinations were made using purified human Factor XIa at a final concentration of 25-200 pM (Haematologic Technologies) and the synthetic substrate S-2366 (pyroGlu-Pro-Arg-pNA; Chromogenix or AnaSpec) at a concentration of 0.0002-0.001 M.
as §2, §3, §4

T2 sequence (P03951 388-625 limits assumed): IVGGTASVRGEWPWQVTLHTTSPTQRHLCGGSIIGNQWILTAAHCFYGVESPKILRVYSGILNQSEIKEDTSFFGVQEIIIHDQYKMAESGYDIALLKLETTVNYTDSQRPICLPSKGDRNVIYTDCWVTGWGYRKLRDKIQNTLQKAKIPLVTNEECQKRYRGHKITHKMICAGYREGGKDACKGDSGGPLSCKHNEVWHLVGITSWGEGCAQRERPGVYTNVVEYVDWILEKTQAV
T2 sequence (P03951 19-387 partner limits assumed): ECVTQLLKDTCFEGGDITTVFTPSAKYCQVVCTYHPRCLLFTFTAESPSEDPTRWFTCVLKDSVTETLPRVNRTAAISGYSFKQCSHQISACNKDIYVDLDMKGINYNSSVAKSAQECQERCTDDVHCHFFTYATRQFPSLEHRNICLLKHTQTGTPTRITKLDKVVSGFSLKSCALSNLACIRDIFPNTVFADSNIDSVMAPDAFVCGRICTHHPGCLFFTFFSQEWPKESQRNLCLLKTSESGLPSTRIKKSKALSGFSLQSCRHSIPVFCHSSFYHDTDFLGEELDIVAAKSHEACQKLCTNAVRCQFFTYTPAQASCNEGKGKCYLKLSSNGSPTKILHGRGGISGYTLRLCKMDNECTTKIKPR
T1 sequence (P03952 391-638 limits assumed): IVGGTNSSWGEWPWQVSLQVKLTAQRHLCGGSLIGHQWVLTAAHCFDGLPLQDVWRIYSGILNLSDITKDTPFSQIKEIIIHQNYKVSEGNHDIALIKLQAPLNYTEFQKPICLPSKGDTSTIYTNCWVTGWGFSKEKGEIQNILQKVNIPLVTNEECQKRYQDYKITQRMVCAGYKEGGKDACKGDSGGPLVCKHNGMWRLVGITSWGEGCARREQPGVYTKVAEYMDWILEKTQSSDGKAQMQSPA
T1 sequence (P03952 20-390 partner limits assumed): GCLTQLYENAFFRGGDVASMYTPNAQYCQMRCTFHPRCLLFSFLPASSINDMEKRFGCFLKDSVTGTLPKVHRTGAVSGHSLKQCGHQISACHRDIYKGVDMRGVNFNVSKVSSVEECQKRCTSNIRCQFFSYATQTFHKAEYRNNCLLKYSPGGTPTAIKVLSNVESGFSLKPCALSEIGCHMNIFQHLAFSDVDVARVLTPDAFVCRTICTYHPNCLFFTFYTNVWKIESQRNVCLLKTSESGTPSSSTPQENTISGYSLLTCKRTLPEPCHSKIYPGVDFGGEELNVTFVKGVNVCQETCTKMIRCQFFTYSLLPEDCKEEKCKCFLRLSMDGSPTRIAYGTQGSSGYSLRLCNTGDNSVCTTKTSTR

Row | SMILES | Ki [1] | Ki [2]
1 | C[C@H]1C(=O)Nc2cnn(C)c2-c2ccnc(c2)[C@@H](N2CCC(c3cc(Cl)ccc3-n3cc(Cl)nn3)=CC2=O)CCC1F (single isomer, unassigned; isomer b) [Example 15] | 450 nM | 19 nM
2 | C[C@@H]1CCC[C@H](N2CCC(c3cc(Cl)ccc3-n3ccnn3)=CC2=O)c2cc(ccn2)-c2c(cnn2C2CC2)NC1=O (stereo in doubt) [Example 5, 13-{4-[5-chloro-2-(1H-1,2,3-triazol-1-yl)phenyl]-6-oxo-1,2,3,6-tetrahydropyridin-1-yl}-3-cyclopropyl-9-methyl-3,4,7,15-tetraazatricyclo [12.3.1.0^2,6]octadeca-1(18),2(6),4,14,16-pentaen-8-one] | 52 nM | 1.4 nM
3 | C[C@@H]1CCC[C@H](N2CCC(c3cc(Cl)ccc3-n3ccnn3)=CC2=O)c2cc(ccn2)-c2c(cnn2CC(F)F)NC1=O (stereo in doubt) [Example 8, 13-{4-[5-chloro-2-(1H-1,2,3-triazol-1-yl)phenyl]-6-oxo-1,2,3,6-tetrahydropyridin-1-yl}-3-(2,2-difluoroethyl)-9-methyl-3,4,7,15-tetraazatricyclo [12.3.1.0^2,6]octadeca-1(18),2(6),4,14,16-pentaen-8-one] | 90 nM | 
4 | C[C@@H]1CCC[C@H](N2CCC(c3cc(Cl)ccc3-n3ccnn3)=CC2=O)c2cc(ccn2)-c2c(cnn2CCO)NC1=O (stereo in doubt) [Example 11, 13-{4-[5-chloro-2-(1H-1,2,3-triazol-1-yl)phenyl]-6-oxo-1,2,3,6-tetrahydropyridin-1-yl}-3-(2-hydroxyethyl)-9-methyl-3,4,7,15-tetraazatricyclo[12.3.1.0^2,6]octadeca-1(18),2(6),4,14,16-pentaen-8-one] | 140 nM | 5.5 nM

Stronger by Ki [1], values ahead:

Row | Ki [1] | Ki [2] | SMILES
5 | 6 nM | 0.1 nM | C[C@H]1C(=O)Nc2cnn(C)c2-c2ccnc(c2)[C@@H](N2CCC(c3cc(Cl)ccc3-n3cc(Cl)nn3)=CC2=O)CCC1F (single isomer, unassigned; isomer a) [Example 13]
6 | 41 nM |  | CCn1ncc2c1-c1ccnc(c1)[C@@H](N1CCC(c3cc(Cl)ccc3-n3ccnn3)=CC1=O)CCC[C@@H](C)C(=O)N2 (stereo in doubt) [Example 7, 13-{4-[5-chloro-2-(1H-1,2,3-triazol-1-yl)phenyl]-6-oxo-1,2,3,6-tetrahydropyridin-1-yl}-3-ethyl-9-methyl-3,4,7,15-tetraazatricyclo[12.3.1.0^2,6]octadeca-1(18),2(6),4,14,16-pentaen-8-one]
7 | 24 nM | 1.8 nM | C[C@@H]1CCC[C@H](N2CCC(c3cc(Cl)ccc3-n3ccnn3)=CC2=O)c2cc(ccn2)-c2c(cnn2C)NC1=O [Example 1, (9R,13S)-13-{4-[5-chloro-2-(1H-1,2,3-triazol-1-yl)phenyl]-6-oxo-1,2,3,6-tetrahydropyridin-1-yl}-3,9-dimethyl-3,4,7,15-tetraazatricyclo[12.3.1.0^2,6]octadeca-1(18),2(6),4,14,16-pentaen-8-one trifluoroacetate]
8 | 30 nM | 10 nM | C[C@@H]1CCC[C@H](N2CCC(c3c(F)ccc(Cl)c3F)=CC2=O)c2cc(ccn2)-c2c(cnn2C)NC1=O [Example 2, (9R,13S)-13-[4-(3-chloro-2,6-difluorophenyl)-6-oxo-1,2,3,6-tetrahydropyridin-1-yl]-3,9-dimethyl-3,4,7,15-tetraazatricyclo[12.3.1.0^2,6]octadeca-1(18),2(6),4,14,16-pentaen-8-one]
9 | 6 nM | 0.12 nM | C[C@@H]1CCC[C@H](N2CCC(c3cc(Cl)ccc3-n3cc(Cl)nn3)=CC2=O)c2cc(ccn2)-c2c(cnn2C)NC1=O [Example 3, (9R,13S)-13-{4-[5-chloro-2-(4-chloro-1H-1,2,3-triazol-1-yl)phenyl]-6-oxo-1,2,3,6-tetrahydropyridin-1-yl}-3,9-dimethyl-3,4,7,15-tetraazatricyclo [12.3.1.0^2,6]octadeca-1(18),2(6),4,14,16-pentaen-8-one]
